# In US8710183B2, “Inhibitors of bacterial tyrosine kinase and uses thereof” (Centre National de la Recherche Scientifique (C.N.R.S.), priority 2008, dated 2014):
# Where no end group is shown, it is not given here.
# Experiments:
# BY-kinase A1B2 = assay: Procedure 1: inhibition of A1B2 autokinase activity (radioactivity incorporated in A1B2); assay type: biochemical, Staphylococcus aureus; design: ActivitY (inhibition): concentration or dose not given beside the values; conditions: for % of inhibition of A1B2 autokinase activity / Radioactivity incorporated in A1B2: A1B2 50 pmole
# Protocol: 50 pmole of the purified BY-kinase (or the dephosphorylated BY-kinase) are incubated for 15 min to 1 hour in the presence of 50 pmole of the drug in a final volume of 20 microliters. The ratio BY-kinase/drug varies from 1/1 to 1/100. The reaction is performed in a buffer specific of each BY-kinase (pH condition, salt concentrations, etc.). The incubation is then continued for 30″ to 1 h in the presence of 5 microCurie of radioactive ATP (^32P or ^33P) labeled on g-P (specific activity 3000 Ci/mmole) and 50 microMolar non-radioactive ATP. The reaction is stopped by adding 5 microliter of gel-electrophoresis loading buffer 5 fold concentrate and heating 5 min at 100° C.
# (§1) The procedure was applied for A1B2 [34] and CapO [20] Each Gene has been cloned in the pQE30 vector (Qiagen) to allow fusion of a histidines-tag fused to the N-terminal end of either A1B2 or CapO. This overproducing plasmid has been transformed in the Escherichia coli XL 1-blue strain. Cells have been incubated at 37° C. under shaking until A600 reached 0.5. IPTG was then added at a final concentration of 0.5 mM, and growth was continued for 3 h at 37° C. under shaking. Cells were harvested by centrifugation at 3000×g for 10 min, washed in buffer A (Tris-HCl 50 mM pH7.5, Nacl 200 mM, glycerol 10%, imidazole 10 mM) containing DNase I and RNase A at a final concentration of […] each, lysozyme 1 mg/ml, and protease inhibitors cocktail. Cells were disrupted by sonication. The resulting suspension was centrifuged at 4° C. for 30 min at 30,000×g. The supernatant was incubated with Ni-NTA matrix (Qiagen), suitable for purification of 6 histidines fusion proteins, for 30 min at 4° C. under gentle shaking. The protein-resin complex was packed into a column for washing and elution steps. The column was washed with buffer B (Tris-HCl 50 mM pH7.5, Nacl 200 mM, glycerol 10%, imidazole 20 mM). Protein elution was carried out with buffer C (Tris-HCl 50 mM pH7.5, NaCl 200 mM, glycerol 10%, imidazole 150 mM). Eluted fractions were collected, analyzed by SDS-PAGE. Appropriated fractions are pooled and dialyzed overnight against buffer D (Tris-HCl 50 mM, pH7.5, NaCl 100 mM, DTT 1 mM, MgCl2 1 mM, glycerol 20%) and used for inhibitory tests or stored at +4° C., −20° C., or −80° C.
# According to procedure 1, 50 pmole of A1B2 were incubated with either, 0 pmole, 50 pmole, or 500 pmole, or 5 nmol of BYK001 for 15 min at 37° C. in a final volume of […]. Then, incubation was continued for 30″, or 1′, or 2′ or 5′ in the presence of […] of [g-^32P] ATP (specific activity 3000 Ci/mmole). The amount of radioactivity incorporated in A1B2 was determined by fluid scintillation counting after gel-electophoresis. The percentage of inhibition of A1B2 autokinase activity is expressed relatively to the radioactivity incorporated in A1B2 when incubated without BYK001.
# [1] = test system: BY-kinase A1B2 (substrate CapO); assay: Procedure 2: inhibition of CapO phosphorylation by A1B2 (radioactivity incorporated in CapO); assay type: biochemical, Staphylococcus aureus; conditions: A1B2 50 pmol, CapO 50 pmole
# Protocol: The procedure 2 is based on procedure 1, except that 5 pmole to 100 pmole of the protein substrate are also added either in the same time as the drug or concomitant with the radioactive ATP and the non-radioactive ATP.
# as §1
# According to procedure 2, 50 pmol of A1B2 and 50 pmole of a substrate of A1B2, namely the protein CapO, were incubated with either 50 pmole, or 500 pmole, or 5 nmol of BYK001 for 15 min at 37° C. in a final volume of […]. Then, incubation was continued for 30″, or 1′, or 2′ or 5′ in the presence of […] of [g-^32P] ATP (specific activity 3000 Ci/mmole). The amount of radioactivity incorporated in CapO was determined by fluid scintillation counting after gel-electophoresis. The percentage of inhibition of CapO phosphorylation by A1B2 is expressed relatively to CapO radioactivity when incubation was performed without BYK001.
# [2] = BYK001 50 pmole, incubation time 0.5 min
# [3] = BYK001 50 pmole, incubation time 1 min
# [4] = BYK001 50 pmole, incubation time 2 min
# [5] = BYK001 50 pmole, incubation time 5 min
# [6] = BYK001 500 pmole, incubation time 0.5 min
# [7] = BYK001 500 pmole, incubation time 1 min
# [8] = BYK001 500 pmole, incubation time 2 min
# [9] = BYK001 500 pmole, incubation time 5 min
# [10] = BYK001 5000 pmole, incubation time 0.5 min
# [11] = BYK001 5000 pmole, incubation time 1 min
# [12] = BYK001 5000 pmole, incubation time 2 min
# [13] = BYK001 5000 pmole, incubation time 5 min
substance,measurement,setting,value
BYK001: peptide with adenine PNA on lysine side chain: S-A-S-Y-Y-A-Y-K(PNA)-G-T-D; native S. aureus tyrosine cluster sequence (SASYYAYK(adenine PNA)GTD),% of inhibition of A1B2 autokinase activity,BY-kinase A1B2; [2],17.54%
same,Radioactivity incorporated in A1B2,BY-kinase A1B2; [2],29233 cpm
same,% of inhibition of A1B2 autokinase activity,BY-kinase A1B2; [3],16.10%
same,Radioactivity incorporated in A1B2,BY-kinase A1B2; [3],71683 cpm
same,% of inhibition of A1B2 autokinase activity,BY-kinase A1B2; [4],16.63%
same,Radioactivity incorporated in A1B2,BY-kinase A1B2; [4],132537 cpm
same,% of inhibition of A1B2 autokinase activity,BY-kinase A1B2; [5],14.68%
same,Radioactivity incorporated in A1B2,BY-kinase A1B2; [5],325711 cpm
same,% of inhibition of A1B2 autokinase activity,BY-kinase A1B2; [6],13.31%
same,Radioactivity incorporated in A1B2,BY-kinase A1B2; [6],30734 cpm
same,% of inhibition of A1B2 autokinase activity,BY-kinase A1B2; [7],15.17%
same,Radioactivity incorporated in A1B2,BY-kinase A1B2; [7],72475 cpm
same,% of inhibition of A1B2 autokinase activity,BY-kinase A1B2; [8],15.95%
same,Radioactivity incorporated in A1B2,BY-kinase A1B2; [8],133624 cpm
same,% of inhibition of A1B2 autokinase activity,BY-kinase A1B2; [9],14.87%
same,Radioactivity incorporated in A1B2,BY-kinase A1B2; [9],324983 cpm
same,% of inhibition of A1B2 autokinase activity,BY-kinase A1B2; [10],15.67%
same,Radioactivity incorporated in A1B2,BY-kinase A1B2; [10],29899 cpm
same,% of inhibition of A1B2 autokinase activity,BY-kinase A1B2; [11],15.11%
same,Radioactivity incorporated in A1B2,BY-kinase A1B2; [11],72528 cpm
same,% of inhibition of A1B2 autokinase activity,BY-kinase A1B2; [12],11.30%
same,Radioactivity incorporated in A1B2,BY-kinase A1B2; [12],141005 cpm
same,% of inhibition of A1B2 autokinase activity,BY-kinase A1B2; [13],15.20%
same,Radioactivity incorporated in A1B2,BY-kinase A1B2; [13],323749 cpm
same,ActivitY (inhibition),"BY-kinase A1B2; Table 5, inhibition of BY-kinase A1B2",15.00%
same,inhibitory effect on BY-kinase A1B2,BY-kinase A1B2; conclusion from procedures 1 and 2,inhibitory effect
same,inhibition,BY-kinase A1B2; summary,around 15%
same,% of inhibition of CapO phosphorylation by A1B2,[1]; [2],10.05%
same,Radioactivity incorporated in CapO,[1]; [2],3555 cpm
same,% of inhibition of CapO phosphorylation by A1B2,[1]; [3],9.33%
same,Radioactivity incorporated in CapO,[1]; [3],6388 cpm
same,% of inhibition of CapO phosphorylation by A1B2,[1]; [4],10.69%
same,Radioactivity incorporated in CapO,[1]; [4],15498 cpm
same,% of inhibition of CapO phosphorylation by A1B2,[1]; [5],8.11%
same,Radioactivity incorporated in CapO,[1]; [5],31901 cpm
same,% of inhibition of CapO phosphorylation by A1B2,[1]; [6],11.51%
same,Radioactivity incorporated in CapO,[1]; [6],3497 cpm
same,% of inhibition of CapO phosphorylation by A1B2,[1]; [7],10.55%
same,Radioactivity incorporated in CapO,[1]; [7],6302 cpm
same,% of inhibition of CapO phosphorylation by A1B2,[1]; [8],10.40%
same,Radioactivity incorporated in CapO,[1]; [8],15549 cpm
same,% of inhibition of CapO phosphorylation by A1B2,[1]; [9],9.99%
same,Radioactivity incorporated in CapO,[1]; [9],31251 cpm
same,% of inhibition of CapO phosphorylation by A1B2,[1]; [10],11.11%
same,Radioactivity incorporated in CapO,[1]; [10],3513 cpm
same,% of inhibition of CapO phosphorylation by A1B2,[1]; [11],10.36%
same,Radioactivity incorporated in CapO,[1]; [11],6315 cpm
same,% of inhibition of CapO phosphorylation by A1B2,[1]; [12],10.85%
same,Radioactivity incorporated in CapO,[1]; [12],15471 cpm
same,% of inhibition of CapO phosphorylation by A1B2,[1]; [13],10.78%
same,Radioactivity incorporated in CapO,[1]; [13],30974 cpm
